Assay results published in ChEMBL document CHEMBL4651402, “Screening of ~5500 FDA-approved drugs and clinical candidates for anti-SARS-CoV-2 activity” (2021).

What was measured:
in vitro = conditions: chlorocebus sabaeus, Vero E6 (Vero C1008) cells
SARS-CoV-2 [1] = assay: microbe, parasite or virus in culture; format: functional, organism-based, Chlorocebus sabaeus, Vero C1008; conditions: Severe acute respiratory syndrome coronavirus 2, Vero C1008, 48 h
SARS-CoV-2 [2] = assay: microbe, parasite or virus in culture; conditions: Severe acute respiratory syndrome coronavirus 2, Vero C1008, 48 h

Structure (SMILES) | CC50 at 48 h (in vitro; CC50) [µM] | CC50 at 48 h (in vitro; pCC50) [µM] | IC50 (SARS-CoV-2 [1]; read-out: IC50) [µM] | IC50 (SARS-CoV-2 [1]; read-out: pIC50 (converted)) [µM] | IC50 (SARS-CoV-2 [2]) [µM] | IC50 (SARS-CoV-2 [2]; read-out: pIC50 (converted)) [µM]
CC(C)(C)NC(=O)[C@@H]1C[C@@H]2CCCC[C@@H]2CN1C[C@@H](O)[C@H](Cc1ccccc1)NC(=O)[C@H](CC(N)=O)NC(=O)c1ccc2ccccc2n1 | 18.2 | 18.2 | > 100 | > 100 | > 100 | > 100
COc1ccc2nc3c(c(N)c2c1)CCCC3 | 47.9 | 47.9 | > 25.1 | > 25.1 | ~11.5 | ~11.5
c1ccc(CN(CCN(Cc2ccccn2)Cc2ccccn2)Cc2ccccn2)nc1 | 1.93 | 1.91 | > 100 | > 100 | > 3.09 | > 3.09
CNCCC=C1c2ccccc2C=Cc2ccccc21 | 23.4 | 23.4 | > 50.1 | > 50.1 | > 50.1 | > 50.1
O=C(NC1CN2CCC1CC2)c1cc(Cl)cc2c1OC1CCCCC21 (centres undefined) | 21.6 | 21.4 | > 25.1 | > 25.1 | 7.94 | 7.94
C[C@H](Oc1cc(-c2cnn(C3CCNCC3)c2)cnc1N)c1c(Cl)ccc(F)c1Cl | 4.42 | 4.37 | ~4.47 | ~4.47 | 6.76 | 6.76
c1ccc(C(O[C@H]2CCCN(CCc3ccc4c(c3)OCO4)C2)c2ccccc2)cc1 | > 100 | > 100 | 87.1 | 87.1 | > 100 | > 100
CN1C2CCC1CC(OC(c1ccccc1)c1ccc(Cl)cc1)C2 (centres undefined) | 8.13 | 8.13 | > 100 | > 100 | 9.77 | 9.77
COc1ccc([C@@H](Cc2ccncc2)c2ccccc2)cc1OC1CCCC1 | 23.4 | 23.4 | > 100 | > 100 | > 100 | > 100
Cc1ccc(CCCO)c(NCc2ccc3nc(NCCCN4CCOCC4)n(Cc4nc(C)ccc4O)c3c2)c1 | 9.33 | 9.33 | > 20 | > 20 | > 20 | > 20
CC(=O)[C@@]12OC(C)(c3ccccc3)O[C@@H]1CC1C3CCC4=CC(=O)CCC4(C)C3CCC12C (some centres undefined) | 15.5 | 15.5 | > 12.6 | > 12.6 | > 100 | > 100
CN1CCC(c2cc3cc(Cl)ccc3o2)CC1 | 34.7 | 34.7 | > 100 | > 100 | 17.2 | 17
CCN(CC)CCCNc1cc(OC)cc2cccnc12 | > 100 | > 100 | > 100 | > 100 | 24.6 | 24.5
COC(=O)C1C2CC3c4[nH]c5cc(OC)ccc5c4CCN3CC2CC(OC(=O)/C=C/c2cc(OC)c(OC)c(OC)c2)C1OC (centres undefined) | 5.5 | 5.5 | > 100 | > 100 | > 50.1 | > 50.1
COC(=O)C1C2CC3c4[nH]c5ccccc5c4CCN3CC2CC(OC(=O)c2cc(OC)c(OC)c(OC)c2)C1OC (centres undefined) | 11.5 | 11.5 | > 25.1 | > 25.1 | > 20 | > 20
CN(C)CC/C=C1\c2ccccc2OCc2c1oc1ccccc21 | 12.2 | 12 | > 100 | > 100 | 18.2 | 18.2
Cc1ccc(-c2nc3c(nc2-c2ccc(C)cc2)N(CCCCCCC(=O)O)CCC3)cc1 | 50.1 | 50.1 | ~16.6 | ~16.6 | 17.4 | 17.4
C#CC1(OC(C)=O)CCC2C3CCC4=C/C(=N/O)CCC4C3CCC21CC (centres undefined) | 20.9 | 20.9 | > 100 | > 100 | > 100 | > 100
C#C[C@]1(O)CCC2C3CCc4cc(OC5CCCC5)ccc4C3CCC21C (some centres undefined) | 7.59 | 7.59 | > 100 | > 100 | 8.71 | 8.71
